Experiments:
HCT-116 [1] = assay: Cytotoxicity against human HCT116 cells assessed as growth inhibition at 100 uM after 24 to 48 hrs by MTT assay relative to control; format: functional; settings: read-out: GI
PC-3 [2] = assay: Cytotoxicity against human PC3 cells assessed as growth inhibition at 30 uM after 24 to 48 hrs by MTT assay relative to control; format: functional; settings: read-out: GI
HepG2 [3] = assay: Cytotoxicity against human HepG2 cells assessed as growth inhibition at 100 uM after 24 to 48 hrs by MTT assay relative to control; format: functional; settings: read-out: GI
HL-60 [4] = assay: cells; settings: Homo sapiens, HL-60, 48 h
Description: Cytotoxicity against human HL60 cells assessed as inhibition of cell proliferation after 48 hrs by MTT assay

cells = settings: Homo sapiens, MIA PaCa-2, 48 h
Description: Cytotoxicity against human MIAPaCa2 cells assessed as inhibition of cell proliferation after 48 hrs by MTT assay

HL-60 [5] = assay: Cytotoxicity against human HL60 cells assessed as growth inhibition at 100 uM after 24 to 48 hrs by MTT assay relative to control; format: functional; settings: read-out: GI
HepG2 [6] = assay: Cytotoxicity against human HepG2 cells assessed as growth inhibition at 30 uM after 24 to 48 hrs by MTT assay relative to control; format: functional; settings: read-out: GI
PC-3 [7] = assay: Cytotoxicity against human PC3 cells assessed as growth inhibition at 100 uM after 24 to 48 hrs by MTT assay relative to control; format: functional; settings: read-out: GI
HCT-116 [8] = assay: cells; settings: Homo sapiens, HCT-116, 48 h
Description: Cytotoxicity against human HCT116 cells assessed as inhibition of cell proliferation after 48 hrs by MTT assay

HL-60 [9] = assay: Cytotoxicity against human HL60 cells assessed as growth inhibition at 10 uM after 24 to 48 hrs by MTT assay relative to control; format: functional; settings: read-out: GI
HCT-116 [10] = assay: Cytotoxicity against human HCT116 cells assessed as growth inhibition at 30 uM after 24 to 48 hrs by MTT assay relative to control; format: functional; settings: read-out: GI
HepG2 [11] = assay: Cytotoxicity against human HepG2 cells assessed as growth inhibition at 10 uM after 24 to 48 hrs by MTT assay relative to control; format: functional; settings: read-out: GI
[12] = Cytotoxicity against human MIAPaCa2 cells assessed as growth inhibition at 10 uM after 24 to 48 hrs by MTT assay relative to control; format: functional; settings: MIA PaCa-2, read-out: GI
HL-60 [13] = assay: Cytotoxicity against human HL60 cells assessed as growth inhibition at 30 uM after 24 to 48 hrs by MTT assay relative to control; format: functional; settings: read-out: GI
[14] = Cytotoxicity against human MIAPaCa2 cells assessed as growth inhibition at 100 uM after 24 to 48 hrs by MTT assay relative to control; format: functional; settings: MIA PaCa-2, read-out: GI
HepG2 [15] = assay: cells; settings: Homo sapiens, HepG2, 48 h
Description: Cytotoxicity against human HepG2 cells assessed as inhibition of cell proliferation after 48 hrs by MTT assay

PC-3 [16] = assay: cells; settings: Homo sapiens, PC-3, 48 h
Description: Cytotoxicity against human PC3 cells assessed as inhibition of cell proliferation after 48 hrs by MTT assay

PC-3 [17] = assay: Cytotoxicity against human PC3 cells assessed as growth inhibition at 10 uM after 24 to 48 hrs by MTT assay relative to control; format: functional; settings: read-out: GI
[18] = Cytotoxicity against human MIAPaCa2 cells assessed as growth inhibition at 30 uM after 24 to 48 hrs by MTT assay relative to control; format: functional; settings: MIA PaCa-2, read-out: GI
HCT-116 [19] = assay: Cytotoxicity against human HCT116 cells assessed as growth inhibition at 10 uM after 24 to 48 hrs by MTT assay relative to control; format: functional; settings: read-out: GI

Row | Compound | IC50 (HL-60 [4]) | IC50 (cells) | IC50 (HCT-116 [8]) | IC50 (HepG2 [15]) | IC50 (PC-3 [16]) | inhibition of growth at 100 µM (HCT-116 [1]) | inhibition of growth at 30 µM (PC-3 [2]) | inhibition of growth at 100 µM (HepG2 [3]) | inhibition of growth at 100 µM (HL-60 [5]) | inhibition of growth at 30 µM (HepG2 [6]) | inhibition of growth at 100 µM (PC-3 [7]) | inhibition of growth at 10 µM (HL-60 [9]) | inhibition of growth at 30 µM (HCT-116 [10]) | inhibition of growth at 10 µM (HepG2 [11]) | inhibition of growth at 10 µM [12] | inhibition of growth at 30 µM (HL-60 [13]) | inhibition of growth at 100 µM [14] | inhibition of growth at 10 µM (PC-3 [17]) | inhibition of growth at 30 µM [18] | inhibition of growth at 10 µM (HCT-116 [19])
1 | O=[N+]([O-])c1cc(S(=O)(=O)N(c2ccccc2)c2ccnc3ccc(-c4ccc(O)cc4)cc23)ccc1C(F)(F)F | < 10 µM | 16 µM | > 100 µM | > 100 µM | 18 µM | 29% | 68% | 8% | 93% | 3% | 84% | 90% | 23% | 3% | 45% | 92% | 79% | 39% | 60% | 20%
2 | N#Cc1ccc(S(=O)(=O)N(c2ccccc2)c2ccnc3ccc(-c4ccc(O)cc4)cc23)cc1 | 58 µM | 78 µM | > 100 µM | > 100 µM | > 100 µM | 36% | 10% | 34% | 78% | 1% | 19% | 12% | 21% | 1% | 16% | 30% | 64% | 9% | 21% | 5%
3 | O=C(c1cccnc1Cl)N(c1ccccc1)c1ccnc2ccc(-c3ccc(O)cc3)cc12 | < 10 µM | < 10 µM | 16 µM | 19 µM | 11 µM | 89% | 90% | 88% | 95% | 87% | 90% | 92% | 88% | 19% | 69% | 94% | 89% | 47% | 89% | 29%
4 | COc1ccc(-c2ccc3nccc(Nc4ccccc4)c3c2)cc1 | 18 µM | 26 µM | 40 µM | > 100 µM | 39 µM | 77% | 46% | 36% | 91% | 30% | 71% | 32% | 45% | 19% | 42% | 69% | 55% | 40% | 53% | 16%
5 | Oc1ccc(-c2ccc3nccc(Nc4ccccc4)c3c2)cc1 | 14 µM | 18 µM | 27 µM | 18 µM | 21 µM | 86% | 74% | 86% | 82% | 53% | 90% | 41% | 53% | 8% | 28% | 65% | 93% | 27% | 91% | 8%

Now from value to compound, other results behind:

Row | IC50 (HL-60 [4]) | IC50 (cells) | IC50 (HCT-116 [8]) | IC50 (HepG2 [15]) | IC50 (PC-3 [16]) | Compound | inhibition of growth at 100 µM (HCT-116 [1]) | inhibition of growth at 30 µM (PC-3 [2]) | inhibition of growth at 100 µM (HepG2 [3]) | inhibition of growth at 100 µM (HL-60 [5]) | inhibition of growth at 30 µM (HepG2 [6]) | inhibition of growth at 100 µM (PC-3 [7]) | inhibition of growth at 10 µM (HL-60 [9]) | inhibition of growth at 30 µM (HCT-116 [10]) | inhibition of growth at 10 µM (HepG2 [11]) | inhibition of growth at 10 µM [12] | inhibition of growth at 30 µM (HL-60 [13]) | inhibition of growth at 100 µM [14] | inhibition of growth at 10 µM (PC-3 [17]) | inhibition of growth at 30 µM [18] | inhibition of growth at 10 µM (HCT-116 [19])
6 | 5 µM | 8 µM | 28 µM | 9 µM | 45 µM | Nc1ccc(S(=O)(=O)N(c2ccccc2)c2ccnc3ccc(-c4ccc(O)cc4)cc23)cc1 | 88% | 40% | 71% | 92% | 70% | 84% | 66% | 54% | 59% | 64% | 81% | 85% | 30% | 84% | 33%
7 | < 10 µM | < 10 µM | 80 µM | < 10 µM | 25 µM | O=S(=O)(c1ccc(F)cc1F)N(c1ccccc1)c1ccnc2ccc(-c3ccc(O)cc3)cc12 | 58% | 61% | 90% | 89% | 89% | 73% | 87% | 20% | 87% | 80% | 88% | 87% | 26% | 84% | 2%
8 | > 100 µM | > 100 µM | > 100 µM | > 100 µM | > 100 µM | Cc1c(C)c(C)c(S(=O)(=O)N(c2ccccc2)c2ccnc3ccc(-c4ccc(O)cc4)cc23)c(C)c1C | 24% | 14% | 10% | 15% | 2% | 15% | 5% | 15% | 1% | 16% | 8% | 22% | 12% | 17% | 14%
9 | < 10 µM | < 10 µM | 53 µM | 19 µM | 45 µM | Cc1ccc(S(=O)(=O)N(c2ccccc2)c2ccnc3ccc(-c4ccc(O)cc4)cc23)cc1 | 82% | 43% | 97% | 92% | 90% | 72% | 78% | 34% | 13% | 80% | 90% | 89% | 20% | 88% | 21%
10 | < 10 µM | 20 µM | 68 µM | 22 µM | > 100 µM | O=S(=O)(c1ccc(Br)cc1)N(c1ccccc1)c1ccnc2ccc(-c3ccc(O)cc3)cc12 | 73% | 28% | 80% | 87% | 73% | 25% | 69% | 23% | 1% | 27% | 88% | 81% | 15% | 76% | 9%

— ChEMBL document CHEMBL3593172, “4-(N-Phenyl-N'-substituted benzenesulfonyl)-6-(4-hydroxyphenyl)quinolines as inhibitors of mammalian target of rapamycin” (Bioorg Med Chem, 2015)
